Earlier results, collected in patent US20020006953A1, “MODIFICATION OF CHOLESTEROL CONCENTRATIONS WITH CITUS PHYTOCHEMICALS” (priority 1999, published 2002).

Columns and labels:
[1] = test system: HepG2 cells
[2] = test system: lipase
[3] = 10% hesperidin diet

Structure (SMILES) | net secretion of apo B [1] | activity of lipase [2] | plasma concentration of triacylglycerols [3]
COc1ccc([C@@H]2CC(=O)c3c(O)cc(O)cc3O2)cc1O [hesperetin] | reduced | – | –
COc1ccc([C@@H]2CC(=O)c3c(O)cc(O[C@@H]4O[C@H](CO[C@@H]5O[C@@H](C)[C@H](O)[C@@H](O)[C@H]5O)[C@@H](O)[C@H](O)[C@H]4O)cc3O2)cc1O [hesperidin] | – | inhibit | significantly reduced
O=C1C[C@@H](c2ccc(O)cc2)Oc2cc(O)cc(O)c21 [naringinin] | reduced | – | –
